The record followed here is ChEMBL document CHEMBL1201862, “PubChem BioAssay data set” (2004).

Molecules are shown by their SMILES.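 Briefly, cells in 96-well plates were exposed to five compound concentrations for 48 h, and endpoints were estimated by linear interpolation. Here, GI50 denotes the concentration required for 50% inhibition of growth.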 The source made the active and inactive calls. No stated cut-off is given here; in the data, active = GI50 up to about 1.1 µM and inactive = higher.

Common to all, as to assay: NCI tumour cell line growth inhibition, 48 h
The test system of assay [1] is Malme-3M.
The test system of assay [2] is MDA-MB-231.
Assay [3] has as its system SF-539.
Assay [4] has as its system SNB-75.
The test system of assay [5] is HT-29.
For assay [6], the system named is COLO 205.
In assay [7] the test system is OVCAR-8.
In assay [8] the test system is IGROV-1.
Assay [9] relates to SW-620.
Assay [10] relates to KM12.
Assay [11] deals with MCF7.
Assay [12] relates to OVCAR-4.
Assay [13] concerns EKVX.
The subject of assay [14] is NCI-H226.
Assay [15] concerns U-251.
Assay [16] relates to OVCAR-3.
In assay [17] the test system is MOLT-4.
Assay [18] relates to RPMI-8226.
Assay [19] relates to HL-60.
Assay [20] has as its system TK-10.

As to `CC(=O)/N=C1/N(/C=C2\C(=O)Oc3ccccc3C2=O)C(=O)/C(=C/c2ccc(OC(C)=O)cc2)N1C`, the GI50 in [1] is > 100 µM (inactive); in [2], > 100 µM (inactive); in assay [3], > 100 µM (inactive); in [4] it was 88.9 µM (inactive); in assay [5], > 100 µM (inactive); in [6] it was > 100 µM (inactive). Besides, the GI50 in [7], in assay [8], in assay [9], in [10], in assay [11] and in assay [12] was > 100 µM (inactive) in each case. In addition, the GI50 was > 100 µM (inactive) in [13]; > 100 µM (inactive) in assay [14]; > 100 µM (inactive) in assay [15]; 83.4 µM (inactive) in assay [16]; > 100 µM (inactive) in [17]; > 100 µM (inactive) in assay [18]. Further, the GI50 in [19] is > 100 µM (inactive).
In the case of `Nc1cc(S(=O)(=O)O)cc2cc(S(=O)(=O)O)c(/N=N/c3ccc(-c4ccc(/N=N/c5c(S(=O)(=O)O)cc6cc(S(=O)(=O)O)cc(N)c6c5O)cc4)cc3)c(O)c12`, the GI50 in assay [1], in [3], in [4], in [5], in [6] and in [7] was > 100 µM (inactive) throughout. Moreover, the GI50 in assay [8], in assay [9], in assay [10], in assay [11], in assay [12] and in assay [13] was > 100 µM (inactive) each time. Also, the GI50 in [14], in assay [15], in assay [16], in [17], in assay [18] and in [19] was > 100 µM (inactive) in each case.
As for `COc1ccc(N[S+]([O-])c2ccc(-c3ccccc3)cc2)cc1` (stereo not given), the GI50 is > 100 µM (inactive) in assay [1]; > 100 µM (inactive) in assay [2]; > 100 µM (inactive) in assay [3]; 22.3 µM (inactive) in assay [4]; > 100 µM (inactive) in [5]; > 100 µM (inactive) in assay [6]. Further, the GI50 in [7] was 29.5 µM (inactive); in assay [8] it was 8.55 µM (inactive); in assay [9], 70.8 µM (inactive); in assay [10], 70.3 µM (inactive); in assay [11], > 100 µM (inactive); in assay [20] it was > 100 µM (inactive). Also, the GI50 in [13] was > 100 µM (inactive); in assay [14], > 100 µM (inactive); in [15] it was 35.1 µM (inactive); in assay [16], > 100 µM (inactive); in assay [17], > 100 µM (inactive); in [18], > 100 µM (inactive). For the same compound, the GI50 in assay [19] is > 100 µM (inactive).
Take `CC(=O)OC/C=C\Cn1ncc(=O)[nH]c1=O`: the GI50 in assay [1] is 16.5 µM (inactive); in assay [2], 34 µM (inactive); in [3], 18.2 µM (inactive); in assay [4], 16.7 µM (inactive); in [5] it was 14.2 µM (inactive); in assay [6], 16 µM (inactive). The GI50 in [7] is 23.7 µM (inactive); in assay [8], 17.9 µM (inactive); in assay [9], 17.1 µM (inactive); in [10] it was 17 µM (inactive); in assay [11], 13 µM (inactive); in [13] it was 20.3 µM (inactive). Also, the GI50 was 18 µM (inactive) in [14]; 15 µM (inactive) in [15]; 28.2 µM (inactive) in assay [16]; 19.2 µM (inactive) in assay [17]; 7.71 µM (inactive) in [18]; 11.3 µM (inactive) in assay [19].
Take `N=c1c2c(=S)n(-c3ccccc3)c(=S)n(-c3ccccc3)c2nc(SCCCN2CCN(c3cccc(Cl)c3)CC2)n1-c1ccccc1`: the GI50 in assay [1] was > 100 µM (inactive); in [2] it was 22.8 µM (inactive); in [3] it was > 100 µM (inactive); in assay [4], 78.5 µM (inactive); in [6], > 100 µM (inactive); in assay [7], > 100 µM (inactive). Further, the GI50 is 97.7 µM (inactive) in [8]; > 100 µM (inactive) in assay [9]; > 100 µM (inactive) in assay [10]; 53.2 µM (inactive) in assay [11]; > 100 µM (inactive) in assay [12]; 37.5 µM (inactive) in assay [20]. Also, the GI50 in assay [13] was > 100 µM (inactive); in assay [14] it was 98.6 µM (inactive); in [15] it was > 100 µM (inactive); in assay [16] it was > 100 µM (inactive); in assay [17], > 100 µM (inactive); in assay [18] it was > 100 µM (inactive). For the same compound, the GI50 in assay [19] is > 100 µM (inactive).
In the case of `CN1C2CCC1CC(C)(O)C2` (stereo not given), the GI50 in assay [1], in assay [2], in assay [5], in assay [6], in assay [7] and in assay [9] was > 100 µM (inactive) throughout. In addition, the GI50 in assay [10], in assay [11], in assay [20], in [13], in [14] and in assay [15] was > 100 µM (inactive) throughout. For the same compound, the GI50 in assay [16], in assay [17], in assay [18] and in assay [19] was > 100 µM (inactive) throughout.
For the compound `CC1(C)CC[C@]2(C)CC[C@]3(C)C(=CC[C@@H]4[C@@]5(C)CCC(=O)C(C)(C)[C@@H]5[C@H](O)C[C@]43C)[C@@H]2C1`, the GI50 in [1] was 17.5 µM (inactive); in assay [2], 11.5 µM (inactive); in assay [3] it was 17.8 µM (inactive); in [5], 17 µM (inactive); in assay [6], 17.4 µM (inactive); in [7], 18.9 µM (inactive). Also, the GI50 in assay [8] was 17 µM (inactive); in assay [9], 19.8 µM (inactive); in assay [10], 19.5 µM (inactive); in assay [11], 19 µM (inactive); in assay [12], 18.1 µM (inactive); in assay [20], 16.5 µM (inactive). Besides, the GI50 in assay [13] was 17.8 µM (inactive); in assay [15], 16.9 µM (inactive); in assay [16], 16.5 µM (inactive); in assay [17], 31.5 µM (inactive); in assay [18], 23 µM (inactive); in assay [19] it was 29.5 µM (inactive).
As for `CSCC(CO)NC(=O)/C=C/c1c(C)[nH]c(=O)[nH]c1=O` (stereo not given), the GI50 in [1] is 307 µM (inactive); in assay [3] it was > 875 µM (inactive); in assay [4], 444 µM (inactive); in assay [5] it was > 826 µM (inactive); in assay [6], 68.5 µM (inactive); in assay [7], 228 µM (inactive). For the same compound, the GI50 was > 875 µM (inactive) in assay [8]; 366 µM (inactive) in assay [9]; 695 µM (inactive) in [10]; 40.3 µM (inactive) in assay [11]; 31.9 µM (inactive) in [12]; 454 µM (inactive) in assay [13]. The GI50 was 752 µM (inactive) in assay [14]; 462 µM (inactive) in assay [15]; 53.1 µM (inactive) in [16]; 232 µM (inactive) in assay [17]; 661 µM (inactive) in assay [18]; 197 µM (inactive) in assay [19].
For the compound `CC(C)=CC(=O)OC1C2C(C)=CC(O)C(O)C2(C)C2C3(O)OCC24C(CC(=O)OC14)C(C)C3O` (stereo not given), the GI50 is 0.0286 µM (active) in assay [1]; 0.0466 µM (active) in [3]; 0.111 µM (active) in [4]; 0.137 µM (active) in assay [5]; 0.778 µM (active) in assay [6]; 0.166 µM (active) in assay [7]. Further, the GI50 was 0.0581 µM (active) in assay [8]; 0.162 µM (active) in [9]; 0.0791 µM (active) in assay [10]; 0.0269 µM (active) in [11]; 0.0647 µM (active) in assay [12]; 0.143 µM (active) in [13]. The GI50 is 0.106 µM (active) in assay [14]; 0.0519 µM (active) in [15]; 0.0339 µM (active) in assay [16]; 0.0225 µM (active) in [17]; 0.0346 µM (active) in [18]; 0.0251 µM (active) in assay [19].
Regarding `CC(C)=C1C2CC3(C)CCC2(C)CCC13.CC1=CCC2C3(C)CCC2(C(C)C)C1C3` (stereo not given), the GI50 is 43.8 µM (inactive) in assay [1]; 22 µM (inactive) in assay [2]; 27.4 µM (inactive) in assay [3]; 23.2 µM (inactive) in [4]; 16.2 µM (inactive) in assay [5]; 26.7 µM (inactive) in assay [6]. Besides, the GI50 in [7] is 17.3 µM (inactive); in [8], 16.5 µM (inactive); in assay [9] it was 23.7 µM (inactive); in assay [10], 19.5 µM (inactive); in [11] it was 19 µM (inactive); in assay [12] it was 26.1 µM (inactive). Also, the GI50 in assay [20] was 25.5 µM (inactive); in [13], 21.6 µM (inactive); in assay [15], 23.4 µM (inactive); in assay [16], 16.5 µM (inactive); in assay [17], 31.9 µM (inactive); in assay [18], 24.9 µM (inactive). Further, in assay [19], the GI50 was 24.2 µM (inactive).
Take `CN(N)c1nc(N)c(C#N)c(C#N)c1C#N`: the GI50 in assay [1], in assay [2], in [3], in assay [4], in [5] and in assay [6] was > 10 µM (inactive) each time. Further, the GI50 in assay [7], in assay [8], in [9], in assay [10], in assay [11] and in assay [12] was > 10 µM (inactive) throughout. In addition, the GI50 in assay [20], in [15], in assay [16], in [17], in assay [18] and in [19] was > 10 µM (inactive) each time.
